# In article PMC13249053, “Mechanism of auranofin toxicity: Inhibition of tetrahydrobiopterin metabolism” (Toxicology and applied pharmacology, 2025):
# “And” between values parts separate entries of the source, which are not always exact repeats. Identical values can stand only once. Like-named read-outs stand apart in the source and are kept apart here.
# How the values were obtained:
# [1] = biological target: T1, sepiapterin reductase (SPR) (Homo sapiens, UniProt P35270); test: SPR enzyme activity in HaCaT cell lysates (BH2 formation from sepiapterin, HPLC); type: biochemical; conditions: BH2 formation from sepiapterin by HPLC, read-out: IC50, inhibition of SPR in HaCaT cell lysates
# T1 construct: endogenous in cells; host or cells: HaCaT, Jurkat, BeWo, SKNMC, CX-1
# Experimental: (§1) The growth medium was then removed and the cells incubated with growth medium containing 100 μM sepiapterin. […] BH2 and BH4 were then analyzed on a Jasco high-performance liquid chromatography system (Easton, MD) fitted with a Maxsil-10 C18 column (250 × 4 mm; Phenomenex, Torrance, CA). […] Cell viability following drug treatments was greater than 95 %.
# Fig. 4. Effects of auranofin on sepiapterin reductase (SPR) enzyme activity in HaCaT lysates. Lysates were assayed for SPR enzyme activity in control reaction mixes or reaction mixes containing increasing concentrations of auranofin (left panel). SPR activity was determined by decreases in BH2 formation from sepiapterin as measured by HPLC (right panel).
# [2] = biological target: T2, SPR (Rattus norvegicus, UniProt P18297); test: Cellular SPR activity: BH2 formation from sepiapterin in the presence of methotrexate, PC12 cells; type: cell-based; conditions: PC12 (rat pheochromocytoma); with methotrexate
# T2 construct: endogenous in cells; host or cells: PC12
# Experimental: as §1
# [3] = biological target: SPR (Homo sapiens, UniProt P35270); test: Sepiapterin reduction by recombinant SPR (absorbance at 420 nm); type: biochemical; parameters: made in house
# Experimental: Sepiapterin reductase activity was assayed by measuring decreases in sepiapterin absorbance at 420 nm as described by Kato ([Kato, 1971]) with some modifications. Briefly, standard reaction mixes contained 100 mM potassium phosphate buffer, pH 7.0, 100 μM NADPH, 50 μM sepiapterin and 1 μg of enzyme protein in a final volume of 0.2 ml. Changes in absorbance of sepiapterin were monitored using a Spectramax M5 microplate reader (Molecular Devices, Sunnyvale, CA). […] Chemical redox cycling by SPR was assayed by measuring the formation of superoxide anion in the presence of menadione as previously described ([Yang et al., 2013]). […] Superoxide anion was measured spectrophotometrically by the reduction of acetylated cytochrome c at 550 nm. DHFR activity was measured as previously described ([Whitsett et al., 2013]) with some modifications. […] Enzyme activity was monitored by decreases in absorbance of NADPH at 340 nm using a microplate reader. […]
# Fig. 5. […] SPR was measured in enzyme assays by decreases in sepiapterin absorbance at 420 nm as described in the Materials and Methods. DHFR activity in enzyme assays was measured by decreases in absorbance of NADPH at 340 nm. […] Redox cycling was measured spectrophotometrically by the reduction of acetylated cytochrome c at 550 nm during the formation of superoxide anion in enzyme assays in the presence of 100 μM menadione.
# [4] = system: cells; test: Cell viability (alamarBlue) following drug treatments; conditions: cells pretreated with auranofin and/or methotrexate for 2 h, then sepiapterin 3 h
# [5] = biological target: T3, DHFR (Homo sapiens, UniProt P00374); test: Cellular DHFR activity: BH4 formation from BH2, human cell lines; type: cell-based; parameters: endogenous in cells; host or cells: HaCaT, Jurkat, BeWo, SKNMC, CX-1
# T3 sequence (P00374 1-187): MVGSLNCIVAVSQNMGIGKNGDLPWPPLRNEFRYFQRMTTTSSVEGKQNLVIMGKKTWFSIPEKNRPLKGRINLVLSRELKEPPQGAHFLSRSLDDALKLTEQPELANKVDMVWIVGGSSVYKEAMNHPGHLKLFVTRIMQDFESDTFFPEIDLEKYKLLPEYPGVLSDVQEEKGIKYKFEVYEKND
# Experimental: Metabolic products of sepiapterin (BH2 and BH4) in intact cells and cell lysates were measured using HPLC as previously described ([Ferre and Naylor, 1988]) with some modifications ([Yang et al., 2013]; [Yang et al., 2015]). Briefly, cells in six-well culture dishes were grown until 60–70 % confluent (~1 × 10^6 cells/well). The growth medium was then removed and the cells incubated with growth medium containing 100 μM sepiapterin. After 3 h, cells were harvested, centrifuged (1500 g, 10 min), and pellets suspended in 200 μl of lysis buffer (50 mM Tris-HCl, pH 7.4, 137 mM NaCl, 0.5 % Nonidet P-40 (NP-40), 0.5 mM EDTA) for 20 min on ice. […] Thirty min later, 50 μl of 1 M H3PO4 was added to the supernatants and the precipitated proteins removed by centrifugation (15,000 g, 3 min). After standing for 10 min at room temperature, excess iodine was reduced by the addition of 25 μl of 57 mM ascorbic acid to the reaction mix. BH2 and BH4 were then analyzed on a Jasco high-performance liquid chromatography system (Easton, MD) fitted with a Maxsil-10 C18 column (250 × 4 mm; Phenomenex, Torrance, CA). Fluorescence was monitored using a Jasco FP-2020 spectrofluorometer with excitation and emission wavelengths set at 362 and 435 nm, respectively ([Yang et al., 2013]; [Yang et al., 2015]).
# Fig. 8. […] DHFR enzyme activity in the cells was assayed by the metabolism of BH2 to BH4. Upper panels. HaCaT cells were treated with control medium or medium containing increasing concentrations of auranofin for 2 h followed by the addition of 200 μM BH2. After an additional 3 h, cells were rinsed with PBS and BH2 and BH4 analyzed by HPLC as described in the Materials and Methods. Lower panels. […] Cells were treated with the drug for increasing periods of time (0–2 h) followed by 200 μM BH2. After an additional 3 h, cells were rinsed with PBS and analyzed for BH2 and BH4 content.
# Sequence of SPR (Homo sapiens, UniProt P35270) (P35270 whole entry): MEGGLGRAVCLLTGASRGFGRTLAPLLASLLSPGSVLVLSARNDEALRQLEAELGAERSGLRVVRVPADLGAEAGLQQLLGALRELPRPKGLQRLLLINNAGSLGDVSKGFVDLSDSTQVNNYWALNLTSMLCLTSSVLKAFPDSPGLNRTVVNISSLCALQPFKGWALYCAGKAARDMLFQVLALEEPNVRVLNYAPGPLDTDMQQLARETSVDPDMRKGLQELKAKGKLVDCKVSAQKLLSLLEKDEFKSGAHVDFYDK
# T2 sequence (P18297 whole entry): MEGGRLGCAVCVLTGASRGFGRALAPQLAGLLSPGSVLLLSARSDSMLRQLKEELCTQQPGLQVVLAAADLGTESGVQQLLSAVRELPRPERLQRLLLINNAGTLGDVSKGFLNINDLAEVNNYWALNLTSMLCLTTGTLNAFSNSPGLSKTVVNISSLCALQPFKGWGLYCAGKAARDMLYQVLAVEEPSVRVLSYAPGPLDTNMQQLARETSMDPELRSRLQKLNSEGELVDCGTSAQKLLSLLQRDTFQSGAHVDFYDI
# T1 sequence (P35270 whole entry): as the sequence (P35270 whole entry) above
compound,measurement,setting,value
"CC[PH](CC)(CC)[Au][S][C@@H]1O[C@H](COC(C)=O)[C@@H](OC(C)=O)[C@H](OC(C)=O)[C@H]1OC(C)=O [auranofin, 2,3,4,6-tetra-O-acetyl-1-thio-β-D-glucopyranosato-S-triethyl phosphine gold]",IC50,[1],1.8 µM
same,IC50,[2],1 ± 0.11 µM
same,recombinant SPR activity versus control,"[3]; 10 μM auranofin, n = 3, P < 0.05",Significantly different
same,IC50,"[3]; 50 μM sepiapterin, 100 μM NADPH, pH 7.0, auranofin added 10 min before, read-out: IC50, inhibition of sepiapterin reduction by recombinant SPR",1.5 µM and 1.53 µM
same,cell viability following drug treatments,[4],greater than 95%
same,IC50,"[5]; BeWo (human choriocarcinoma), BH4 formation from BH2, read-out: DHFR IC50, BeWo cells",3.9 ± 0.15 µM
same,IC50,"[5]; CX-1 (human colon adenocarcinoma), BH4 formation from BH2, read-out: DHFR IC50, CX-1 cells",7.3 ± 0.1 µM
same,IC50,"[5]; HaCaT (human keratinocytes), auranofin 2 h, then 200 μM BH2 3 h, read-out: DHFR IC50, HaCaT cells",6.3 ± 0.75 µM
same,time of pretreatment to maximal inhibition of cellular DHFR,"[5]; HaCaT cells, 20 μM auranofin",2 h
same,IC50,"[5]; Jurkat (human leukemia), BH4 formation from BH2, read-out: DHFR IC50, Jurkat cells",5.4 ± 0.07 µM
same,IC50,"[5]; SKNMC (human neuroblastoma), BH4 formation from BH2, read-out: DHFR IC50, SKNMC cells",15.2 ± 0.53 µM
